We go through 4 compounds from US5654422A, “Acylated γ-cyclodextrins” (priority 1994, dated 1997).

Like-named read-outs stand apart in the source and are kept apart here.

The conditions of data set [1]: G. Antlsperger, 6th International Symposium on Cyclodextrins, 1992; cited from earlier work.
For data set [2] the following is noted: cited from earlier work.
For data set [3] the following is noted: cited from earlier work. The source holds these as a separate data set.
For data set [4] the following is noted: zahn-wellens test, 336 h.
Protocol: The biological degradability was determined by means of the Zahn-Wellens Test (OECD Guidelines for testing of Chemicals 302B, Adopted by the Council on 17th Jul. 1992).

As to `OC[C@H]1O[C@@H]2O[C@H]3[C@H](O)[C@@H](O)[C@@H](O[C@H]4[C@H](O)[C@@H](O)[C@@H](O[C@H]5[C@H](O)[C@@H](O)[C@@H](O[C@H]6[C@H](O)[C@@H](O)[C@@H](O[C@H]7[C@H](O)[C@@H](O)[C@@H](O[C@H]8[C@H](O)[C@@H](O)[C@@H](O[C@H]9[C@H](O)[C@@H](O)[C@@H](O[C@H]1[C@H](O)[C@H]2O)O[C@@H]9CO)O[C@@H]8CO)O[C@@H]7CO)O[C@@H]6CO)O[C@@H]5CO)O[C@@H]4CO)O[C@@H]3CO` [γ-CD, γ-cyclodextrin], the “toxicological properties” value in data set [1] is “favorable toxicological properties”. In addition, in data set [2] (U.S. Pat. No. 4,764,604), the “precipitation of complexes at higher concentrations” value was “frequently precipitate out at higher concentrations”. The “solubilizing capacity / properties” value in data set [2] (prior art statement) is “comparatively low”. Moreover, the solubility in water in data set [3] (native γ-cyclodextrin) is 18.7 % by weight; in data set [3] (prior art statement) it was “comparatively poorly soluble in water”.
Take “Acetyl-γ-CD (DS, 0.83) [Ex. 2 Ac-gamma-CD(0.83)]”: in data set [4], the “Degradation ZaWe-14d” value turned out to be 98%.
On the same count and under the same terms, in the case of “Methyl-γ-cyclodextrin (DS,1.8) [Me-gamma-CD(1.8)]” it was 14%; in that of “hydroxypropyl-γ-cyclodextrin [Hp-gamma-CD(0.9)]”, 25%.
